Laboratory results reported in patent US20020045780A1, “Biologically active spermidine analogues, pharmaceutical compositions and methods of treatment” (priority 1997, published 2002).
Where a name gives a salt, the structure may show the parent alone. Read-outs that look alike come from different tables or passages of the source. Values belong to the molecule of their own block, whether it stands above or below them.

Legend:
[1] = Acute toxicity in mice (single i.p. dose); assay type: in vivo; conditions: female, CD-1, mouse, in vivo, ip
Description: (§1) In the current study, the acute toxicity of six analogues and the chronic toxicity of two triamines were measured (Table 7). The value of all polyamine LD50s are shown in both mg/kg and mmol/kg for comparison. […] The animals were scored two hours after administration of the drug. It is clear that the acute LD50s for triamine analogues are approximately twice the acute LD50s for the corresponding tetraamine analogues.
(§2) Acute and chronic toxicities were assessed in 10-12 week old CD-1 female mice from Harlan Sprague-Dawley. For acute toxicities, the polyamine analogues were administered in a single i.p. injection to groups of five or six animals at each dose. The animals were scored two hours after administration of the dose. All survivors were further observed for 10 days to assess late onset of toxicity from the single acute dose. In the chronic toxicity regimen, mice were administered polyamine analogue in three i.p. doses per day (t.i.d.) for six days, for a total of eighteen doses per animal. Appetite, weight and overall appearance were monitored daily. […] At least three test groups of 5-6 animals each, representing three different dose levels, were evaluated for each analogue tested. These dose levels were chosen so that at least two groups presented with lethalities, one with a high fraction of lethalities (>0.50, but <1.00).

mice [2] = assay: Acute toxicity in mice (single i.p. dose); assay type: in vivo
Description: as §1, §2

L1210 cells [3] = conditions: cited from earlier work
[4] = target: polyamine transport apparatus; conditions: cited from earlier work; for Ki: inhibition of spermidine transport, L1210, read-out: Ki, corresponding tetraamine (in parentheses)
L1210 cells [5] = conditions: 48 hours, cited from earlier work; for Put, corresponding tetraamine (in parentheses) / Spd, corresponding tetraamine (in parentheses) / Spm, corresponding tetraamine (in parentheses): % of untreated control; for Analogue, corresponding tetraamine (in parentheses): intracellular amount
[6] = tested on: ornithine decarboxylase (ODC); conditions: cited from earlier work; for ODC activity, corresponding tetraamine (in parentheses): L1210, 1 μM at 4 hours
[7] = tested on: spermidine/spermine acetyltransferase (SSAT); conditions: L1210, 2 μM at 48 hours (tetraamine analogues); cited from earlier work
mice [8] = conditions: cited from earlier work
[9] = tested on: S-adenosylmethionine decarboxylase (AdoMetDC); conditions: cited from earlier work; for AdoMetDC activity, corresponding tetraamine (in parentheses): L1210, 1 μM at 6 hours
L1210 cells [10] = assay: Metabolic transformation of polyamine analogues by L1210 cells; assay type: in vitro ADME, murine
Description: The cells were washed twice with cold RPMI-1640, and the pellet was treated with 0.6 N HClO4 (1 ml/10^7 cells). Polyamine contents of the perchloric acid extracts were quantitated by HPLC of the DANSYL derivatives [Bergeron et al, J. Med. Chem., Vol. 37, supra].

SSAT = conditions: MALME-3 cells; cited from earlier work
[11] = mice, single dose i.p., scored two hours after dose, read-out: Acute LD50
[12] = L1210, 48 hour exposure, read-out: IC50 48 hour, corresponding tetraamine (in parentheses)
[13] = L1210, 96 hour exposure, read-out: IC50 96 hour, corresponding tetraamine (in parentheses)
[14] = female, CD-1, mouse, in vivo, 600 mg/kg

Compound: CCNCCCCNCCCCCNCCCCNCC [DE(4,5,4)]
LD50 at 2 h [1, 11]: 638 µmol/kg
Acute LD50 (mice [2]; mice, single dose i.p., scored two hours after dose, hydrochloride salts): 285 mg/kg
IC50 (L1210 cells [3]; [12]): 0.3 µM
IC50 (L1210 cells [3]; [13]): 0.035 µM
Ki [4]: 6 µM
Put, corresponding tetraamine (in parentheses) (L1210 cells [5]; 0.3 μM): (44) %
Spd, corresponding tetraamine (in parentheses) (L1210 cells [5]; 0.3 μM): (61) %
Spm, corresponding tetraamine (in parentheses) (L1210 cells [5]; 0.3 μM): (70) %
Analogue, corresponding tetraamine (in parentheses) (L1210 cells [5]; 0.3 μM): (0.26) nmol/10^6 cells
ODC activity, corresponding tetraamine (in parentheses) [6]: 20% of untreated control
SSAT activity, corresponding tetraamine (in parentheses) [7]: 120 (120) percent of untreated control
Chronic LD50 (tetraamines) (mice [8]; mice, i.p. t.i.d. × 6 days): 0.104 mmol/kg/day
Chronic LD50 (tetraamines) (mice [8]; mouse, in vivo, ip): 48 mg/kg-day

Compound: CCNCCCCCNCCCCNCCCCCNCC.Cl.Cl.Cl.Cl [DE(5,4,5), 3,9,14,20-Tetraazadocosane Tetrahydrochloride]
LD50 at 2 h ([1]; mice, single dose i.p., scored two hours after dose, hydrochloride salts, read-out: Acute LD50): 195 mg/kg
LD50 at 2 h [1, 11]: 424 µmol/kg
IC50 (L1210 cells [3]; [12]): 0.4 µM
IC50 (L1210 cells [3]; [13]): 0.03 µM
Ki [4]: 16 µM
Put, corresponding tetraamine (in parentheses) (L1210 cells [5]; 0.75 μM): (0) %
Spd, corresponding tetraamine (in parentheses) (L1210 cells [5]; 0.75 μM): (10) %
Spm, corresponding tetraamine (in parentheses) (L1210 cells [5]; 0.75 μM): (58) %
Analogue, corresponding tetraamine (in parentheses) (L1210 cells [5]; 0.75 μM): (1.48) nmol/10^6 cells
ODC activity, corresponding tetraamine (in parentheses) [6]: 19% of untreated control
AdoMetDC activity, corresponding tetraamine (in parentheses) [9]: 54% of untreated control
SSAT activity, corresponding tetraamine (in parentheses) [7]: 190% of untreated control
Chronic LD50 (tetraamines) (mice [8]; mice, i.p. t.i.d. × 6 days, hydrochloride salts): 36 mg/kg-day
Chronic LD50 (tetraamines) (mice [8]; mice, i.p. t.i.d. × 6 days): 0.078 mmol/kg/day

Compound: CCNCCCNCCCNCCCNCC [DENSPM, N^1,N^11-diethylnorspermine]
Parent drug as % of total drug in the cell (L1210 cells [10]; 48 hours, 500 μM analogue): 95.3%
Parent drug in L1210 cells (L1210 cells [10]; 48 hours, 500 μM analogue): 2440 pmols/10^6
IC50 (L1210 cells [3]; [12]): > 100 µM
IC50 (L1210 cells [3]; [13]): 2 µM
Ki [4]: 17 µM
Ki relative to those of DESPM and DEHSPM ([4]; polyamine transport system): over 10 times
Put, corresponding tetraamine (in parentheses) (L1210 cells [5]; 10 μM): (30) %
Spd, corresponding tetraamine (in parentheses) (L1210 cells [5]; 10 μM): (14) %
Spm, corresponding tetraamine (in parentheses) (L1210 cells [5]; 10 μM): (31) %
Analogue, corresponding tetraamine (in parentheses) (L1210 cells [5]; 10 μM): (1.59) nmol/10^6 cells
Analogue, corresponding tetraamine (in parentheses) (L1210 cells [5]; 100 μM): (2.44) nmol/10^6 cells
AdoMetDC activity, corresponding tetraamine (in parentheses) [9]: 42% of untreated control
SSAT activity, corresponding tetraamine (in parentheses) [7]: 1500% of untreated control
SSAT up-regulation (SSAT): 1200 fold

Compound: CCNCCCNCCCCNCCCNCC [DESPM, N^1,N^12-diethylspermine]
LD50 at 2 h [1]: 842 µmol/kg
Animals died within seven days (mice [2]; [14]): 5/5
Death within the initial 2 hours (mice [2]; [14]): no death
IC50 (L1210 cells [3]; [12]): 30 µM
IC50 (L1210 cells [3]; [13]): 0.18 µM
Ki [4]: 1.6 µM
Time at which reduction in ODC activity plateaued ([6]; previous studies): 4 h
AdoMetDC activity, corresponding tetraamine (in parentheses) [9]: 28% of untreated control
Time at which reduction in AdoMetDC activity plateaued ([9]; previous studies): 6 h
SSAT activity, corresponding tetraamine (in parentheses) [7]: 460% of untreated control
SSAT up-regulation (SSAT): 250 fold

Compound: CNCCCCNCCCCNCCCCNC [DMHSPM]
N-dealkylation (result in words) (L1210 cells [10]; L1210 cells, data not shown, concentration not given): no evidence of N-dealkylation
IC50 (L1210 cells [3]; [12]): > 100 µM
IC50 (L1210 cells [3]; [13]): 0.32 µM
Ki [4]: 0.97 µM
Put, corresponding tetraamine (in parentheses) (L1210 cells [5]; 100 μM): (0) %
Spd, corresponding tetraamine (in parentheses) (L1210 cells [5]; 100 μM): (0) %
Spm, corresponding tetraamine (in parentheses) (L1210 cells [5]; 100 μM): (30) %
Put, corresponding tetraamine (in parentheses) (L1210 cells [5]; 500 μM): (0) %
Spd, corresponding tetraamine (in parentheses) (L1210 cells [5]; 500 μM): (0) %
Spm, corresponding tetraamine (in parentheses) (L1210 cells [5]; 500 μM): (27) %
Analogue, corresponding tetraamine (in parentheses) (L1210 cells [5]; 100 μM): (1.49) nmol/10^6 cells
Analogue, corresponding tetraamine (in parentheses) (L1210 cells [5]; 500 μM): (1.03) nmol/10^6 cells
ODC activity, corresponding tetraamine (in parentheses) [6]: 4% of untreated control
AdoMetDC activity, corresponding tetraamine (in parentheses) [9]: 45% of untreated control
SSAT activity, corresponding tetraamine (in parentheses) [7]: 140% of untreated control

Further lines, with some results ahead:

N-Monodealkylation (result in words) (L1210 cells [10]; 48 hours, 100 μM analogue): no N-deethylation
Parent drug as % of total drug in the cell (L1210 cells [10]; 48 hours, 100 μM analogue): 100%
Parent drug in L1210 cells (L1210 cells [10]; 48 hours, 100 μM analogue): 4215 pmols/10^6
Compound: CCNCCCCNCCCCNCCCCNCC [DEHSPM, N^1,N^14-diethylhomospermine]
IC50 (L1210 cells [3]; [12]): 0.2 µM
IC50 (L1210 cells [3]; [13]): 0.07 µM
Ki [4]: 1.4 µM
Put, corresponding tetraamine (in parentheses) (L1210 cells [5]; 10 μM): (0) %
Spd, corresponding tetraamine (in parentheses) (L1210 cells [5]; 10 μM): (0) %
Spm, corresponding tetraamine (in parentheses) (L1210 cells [5]; 10 μM): (61) %
Analogue, corresponding tetraamine (in parentheses) (L1210 cells [5]; 10 μM): (2.94) nmol/10^6 cells
ODC activity, corresponding tetraamine (in parentheses) [6]: 7% of untreated control
SSAT activity, corresponding tetraamine (in parentheses) [7]: 110% of untreated control
SSAT up-regulation (SSAT): 30 fold

Parent drug as % of total drug in the cell (L1210 cells [10]; 48 hours, 100 μM analogue): 78.2%
Parent drug in L1210 cells (L1210 cells [10]; 48 hours, 100 μM analogue): 893 pmols/10^6
Compound: CCCNCCCNCCCNCCCNCCC [DPNSPM, N^1,N^11-Dipropylnorspermine Tetrahydrochloride]
IC50 (L1210 cells [3]; [12]): > 100 µM
IC50 (L1210 cells [3]; [13]): 18 µM
Ki [4]: 11 µM
Put, corresponding tetraamine (in parentheses) (L1210 cells [5]; 100 μM): (61) %
Spd, corresponding tetraamine (in parentheses) (L1210 cells [5]; 100 μM): (35) %
Spm, corresponding tetraamine (in parentheses) (L1210 cells [5]; 100 μM): (77) %
Put, corresponding tetraamine (in parentheses) (L1210 cells [5]; 500 μM): (0) %
Spd, corresponding tetraamine (in parentheses) (L1210 cells [5]; 500 μM): (19) %
Spm, corresponding tetraamine (in parentheses) (L1210 cells [5]; 500 μM): (56) %
Analogue, corresponding tetraamine (in parentheses) (L1210 cells [5]; 100 μM): (0.89) nmol/10^6 cells
Analogue, corresponding tetraamine (in parentheses) (L1210 cells [5]; 500 μM): (1.28) nmol/10^6 cells
ODC activity, corresponding tetraamine (in parentheses) [6]: 79% of untreated control
AdoMetDC activity, corresponding tetraamine (in parentheses) [9]: 70% of untreated control
SSAT activity, corresponding tetraamine (in parentheses) [7]: 460% of untreated control

Parent drug as % of total drug in the cell (L1210 cells [10]; 48 hours, 15 μM analogue): 79.0%
Parent drug in L1210 cells (L1210 cells [10]; 48 hours, 15 μM analogue): 1568 pmols/10^6
Compound: CCCNCCCNCCCCNCCCNCCC [DPSPM]
IC50 (L1210 cells [3]; [12]): 3 µM
IC50 (L1210 cells [3]; [13]): 0.2 µM
Ki [4]: 2.3 µM
Put, corresponding tetraamine (in parentheses) (L1210 cells [5]; 15 μM): (0) %
Analogue, corresponding tetraamine (in parentheses) (L1210 cells [5]; 3 μM): (1.12) nmol/10^6 cells
Analogue, corresponding tetraamine (in parentheses) (L1210 cells [5]; 15 μM): (1.09) nmol/10^6 cells
ODC activity, corresponding tetraamine (in parentheses) [6]: 52% of untreated control
AdoMetDC activity, corresponding tetraamine (in parentheses) [9]: 72% of untreated control
SSAT activity, corresponding tetraamine (in parentheses) [7]: 500% of untreated control
